Laboratory results as given in the NIST ThermoML archive (doi:10.1016/j.jct.2012.02.033).

What was measured:
[1] = xn = mol fraction of the nth substance listed; settings: 101.3 kPa, Liquid, Vibrating tube method
[2] = 101.33 kPa, Liquid, Vibrating tube method

CCNC=O [N-ethylformamide] + CCOC(C)=O
mass density [kg/m3], [1]
Settings | x1 = 0.1322 | x1 = 0.2514 | x1 = 0.3559 | x1 = 0.4653 | x1 = 0.564 | x1 = 0.671 | x1 = 0.7544 | x1 = 0.8376 | x1 = 0.9223
293.15 K | 907.89 | 914.13 | 919.39 | 924.91 | 929.7 | 935.01 | 939.27 | 943.3 | 947.63
298.15 K | 901.99 | 908.51 | 914.06 | 919.68 | 924.66 | 930.12 | 934.56 | 938.85 | 943.28
303.15 K | 896.06 | 902.84 | 908.62 | 914.51 | 919.65 | 925.33 | 929.93 | 934.35 | 938.94
308.15 K | 890.09 | 897.16 | 903.23 | 909.29 | 914.62 | 920.5 | 925.29 | 929.86 | 934.56
313.15 K | 884.03 | 891.14 | 897.65 | 903.98 | 909.53 | 915.67 | 920.55 | 925.31 | 930.15

CCC(C)=O [butanone]
[2]
Settings | mass density [kg/m3]
293.15 K | 808.64
298.15 K | 803.24
303.15 K | 797.88
308.15 K | 792.45
313.15 K | 786.94

CCOC(C)=O [ethyl acetate]
[2]
Settings | mass density [kg/m3]
293.15 K | 900.26
298.15 K | 894.14
303.15 K | 887.85
308.15 K | 881.52
313.15 K | 875.14

C1CCOC1 [tetrahydrofuran]
[2]
Settings | mass density [kg/m3]
293.15 K | 888.73
298.15 K | 883.24
303.15 K | 877.6
308.15 K | 872.02
313.15 K | 866.23
